Data reported in US20150353495A1 (PORTOLA PHARMACEUTICALS, INC., priority 2010, published 2015).

Assays:
Format in all cases: biochemical
JAK1 = target: T1, JAK1 (Homo sapiens, UniProt P23458); assay: Z'-LYTE kinase assay JAK1
T1 construct: 5 μl of catalytic domain recombinant Kinase enzyme+Tyr peptide substrate (Invitrogen, CA); purchased Invitrogen
Experimental: (§1) JAK and TYK2 tyrosine phosphorylation activity is measured using the Z′-LYTE™ Technology developed by Invitrogen Corporation (Carlsbad, Calif.). For JAK1, JAK2 and JAK3 the Z′-LYTE™ Kinase Assay Kit-Tyr6 Peptide (part number PV4122) was used. For TYK2 the Z′-LYTE™ Kinase Assay Kit-Tyr6 Peptide (part number PV3192) was used. The Z′-LYTE™ biochemical assay employs a fluorescence resonance energy transfer (FRET) coupled-enzyme format and is based on the differential sensitivity of phosphorylated and non-phosphorylated peptides to proteolitic cleavage. The assay uses a synthetic peptide substrate that is labelled with a donor fluorophore (coumarin) and an acceptor fluorophore (fluorescein) that make up a FRET pair. In the primary reaction (the Kinase Reaction), the kinase transfers the γ-phosphate of ATP to a single tyrosine residue on the substrate, while the presence of a kinase inhibitor in the primary reaction suppresses phosphorylation. In the secondary reaction (the Development Reaction), a site-specific protease (the Development Reagent) is added. The development buffer quenches the Kinase Reaction, while the protease recognizes and cleaves non-phosphorylated Z′-LYTE™ peptide substrate. Cleavage disrupts FRET between the donor and acceptor fluorophores on the non-phosphoryleted substrate, while uncleaved, phosphorylated substrate maintains FRET.
(§2) To test the ability of candidate molecules to inhibit JAK tyrosine phosphorylation activity, molecules are reconstituted in 100% DMSO and serially diluted 1:10 in polypropylene v-bottom microtiter plates. The candidate molecules are then diluted 1:25 into kinase buffer and 2.5 μl transferred into duplicate wells of a 384 well low volume black microtiter assay plate (Corning, USA). The final DMSO concentration in the assay is 1%. The kinase reaction contains 2.5 μl of a candidate molecule, 5 μl of catalytic domain recombinant Kinase enzyme+Tyr peptide substrate (Invitrogen, CA) and 2.5 μl ATP (Invitrogen, CA). The kinase reaction is allowed to procede for 1 hour at room temperature. The protease reaction is initiated by the addition of 5 μl Development Reagent (Invitrogen, CA). After 1 hour incubation at room temperature the fluorescence is measured using a FlexStation plate reader (Molecular Devices, Sunnyvale, Calif.).

JAK3 = target: T2, JAK3 (Homo sapiens, UniProt P52333); assay: Z'-LYTE kinase assay JAK3
T2 construct: 5 μl of catalytic domain recombinant Kinase enzyme+Tyr peptide substrate (Invitrogen, CA); purchased Invitrogen
Experimental: as §1, §2

JAK2 = target: T3, JAK2 (Homo sapiens, UniProt O60674); assay: Z'-LYTE kinase assay JAK2
T3 construct: 5 μl of catalytic domain recombinant Kinase enzyme+Tyr peptide substrate (Invitrogen, CA); purchased Invitrogen
Experimental: as §1, §2

T2 sequence (P52333 822-1111 limits assumed): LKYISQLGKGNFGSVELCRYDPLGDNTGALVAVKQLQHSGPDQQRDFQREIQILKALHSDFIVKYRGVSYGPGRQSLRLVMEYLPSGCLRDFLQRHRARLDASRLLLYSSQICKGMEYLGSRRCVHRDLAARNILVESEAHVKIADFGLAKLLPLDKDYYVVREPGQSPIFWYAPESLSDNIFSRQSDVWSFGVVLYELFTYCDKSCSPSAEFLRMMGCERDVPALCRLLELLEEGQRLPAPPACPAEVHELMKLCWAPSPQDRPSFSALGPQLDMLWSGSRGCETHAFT
T1 sequence (P23458 875-1153 limits assumed): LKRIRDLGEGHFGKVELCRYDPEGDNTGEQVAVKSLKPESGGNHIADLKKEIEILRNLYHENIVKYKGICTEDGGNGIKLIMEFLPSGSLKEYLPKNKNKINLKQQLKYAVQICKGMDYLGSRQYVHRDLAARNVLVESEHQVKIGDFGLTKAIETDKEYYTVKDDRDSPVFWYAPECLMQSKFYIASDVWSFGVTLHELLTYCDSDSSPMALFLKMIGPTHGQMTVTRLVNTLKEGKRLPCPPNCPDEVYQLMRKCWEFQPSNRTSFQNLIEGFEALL
T3 sequence (O60674 849-1124 limits assumed): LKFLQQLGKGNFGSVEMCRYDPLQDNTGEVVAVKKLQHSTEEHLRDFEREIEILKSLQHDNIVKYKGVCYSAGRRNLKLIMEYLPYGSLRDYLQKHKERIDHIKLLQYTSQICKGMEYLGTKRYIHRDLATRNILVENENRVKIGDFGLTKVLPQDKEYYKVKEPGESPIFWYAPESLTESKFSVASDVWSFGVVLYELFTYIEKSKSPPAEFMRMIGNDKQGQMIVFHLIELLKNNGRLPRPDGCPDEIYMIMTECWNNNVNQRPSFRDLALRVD

Row | Structure (SMILES) | IC50 (JAK1) [µM] | IC50 (JAK3) [µM] | IC50 (JAK2) [µM]
1 | CN(C)C(=O)C1CCN(c2ccc(Nc3cc(NCc4cccc5ccsc45)c(C(N)=O)cn3)cc2Cl)CC1 [Example 351, 4-(benzo[b]thiophen-7-ylmethylamino)-6-(3-chloro-4-(4-(dimethylcarbamoyl)piperidin-1-yl)phenylamino)nicotinamide] | 0.1 to 1 | 0.001 to 0.01 | 0.1 to 1
2 | CCC(=O)N1CC(c2ccc(Nc3cc(NCc4cccc5ccsc45)c(C(N)=O)cn3)cc2)C1 [Example 491, 4-(benzo[b]thiophen-7-ylmethylamino)-6-(4-(1-propionylazetidin-3-yl)phenylamino)nicotinamide] | 0.1 to 1 | 0.001 to 0.01 | 0.01 to 0.1
3 | CC(=O)N(C)c1ccc(Nc2cc(NC3(c4ccccc4)CC3)c(C(N)=O)cn2)cc1 [Example 361, 6-(4-(N-methylacetamido)phenylamino)-4-(1-phenylcyclopropylamino)nicotinamide] | > 1 | 0.1 to 1 | > 1
4 | COc1cc(Nc2cc(NC[C@H]3CCCN(C(C)=O)C3)c(C(N)=O)cn2)ccc1C(=O)N(C)C [Example 441, (R)-4-((1-acetylpiperidin-3-yl)methylamino)-6-(4-(dimethylcarbamoyl)-3-methoxyphenylamino)nicotinamide] | > 1 | 0.01 to 0.1 | 0.1 to 1
5 | N#CC1(C(=O)N2CCC(c3ccc(Nc4cc(NCc5ccccc5F)c(C(N)=O)cn4)cc3)CC2)CC1 [Example 118, 6-(4-(1-(1-cyanocyclopropanecarbonyl)piperidin-4-yl)phenylamino)-4-(2-fluorobenzylamino)nicotinamide] | > 1 | 0.01 to 0.1 | > 1
6 | CS(=O)(=O)N1CC(c2ccc(Nc3cc(NCc4ccccc4)c(C(N)=O)cn3)cc2)C1 [Example 335, 4-(benzylamino)-6-(4-(1-(methylsulfonyl)azetidin-3-yl)phenylamino)nicotinamide] | 0.1 to 1 | 0.01 to 0.1 | 0.1 to 1
7 | NC(=O)c1cnc(Nc2ccc(C3CCNCC3)cc2)cc1NCc1cc(F)ccc1F [Example 214, 4-(2,5-difluorobenzylamino)-6-(4-(piperidin-4-yl)phenylamino)nicotinamide] | 0.01 to 0.1 | 0.001 to 0.01 | 0.01 to 0.1
8 | Cc1ccc(Nc2cc(NCc3cncc(F)c3)c(C(N)=O)cn2)cc1 [Example 311, 4-((5-fluoropyridin-3-yl)methylamino)-6-(p-tolylamino)nicotinamide] | 0.1 to 1 | 0.01 to 0.1 | 0.1 to 1
9 | NC(=O)c1cnc(Nc2ccc(N3CCC(F)(F)CC3)cc2)cc1NC1(c2ccccc2)CC1 [Example 131, 6-(4-(4,4-difluoropiperidin-1-yl)phenylamino)-4-(1-phenylcyclopropylamino)nicotinamide] | > 1 | 0.1 to 1 | > 1
10 | CN(C)C(=O)c1ccc(Nc2cc(NCc3ccccc3)c(C(N)=O)cn2)cc1F [Example 273, 4-(benzylamino)-6-(4-(dimethylcarbamoyl)-3-fluorophenylamino)nicotinamide] | > 1 | 0.01 to 0.1 | 0.1 to 1
11 | COCC(=O)N1CC(c2ccc(Nc3cc(NCc4cccc5[nH]ccc45)c(C(N)=O)cn3)cc2)C1 [Example 494, 4-((1H-indol-4-yl)methylamino)-6-(4-(1-(2-methoxyacetyl)azetidin-3-yl)phenylamino)nicotinamide] | 0.001 to 0.01 | < 0.001 | 0.001 to 0.01
12 | NC(=O)c1cnc(Nc2ccc(C(F)(F)F)cc2)cc1NCc1cncc(F)c1 [Example 305] | > 1 | 0.1 to 1 | > 1
13 | COc1ccc(Nc2cc(NCc3cncc(F)c3)c(C(N)=O)cn2)cc1 [Example 296, 4-((5-fluoropyridin-3-yl)methylamino)-6-(4-methoxyphenylamino)nicotinamide] | 0.1 to 1 | 0.01 to 0.1 | 0.1 to 1
14 | NC(=O)c1cnc(Nc2cccc(C3CCOCC3)c2)cc1NCc1cncc(F)c1 [Example 208, 4-((5-fluoropyridin-3-yl)methylamino)-6-(3-(tetrahydro-2H-pyran-4-yl)phenylamino)nicotinamide] | 0.1 to 1 | 0.001 to 0.01 | 0.01 to 0.1
15 | CN(C)C(=O)c1ccc(Nc2cc(NCc3cccc(S(C)(=O)=O)c3)c(C(N)=O)cn2)cc1 [Example 302, 6-(4-(dimethylcarbamoyl)phenylamino)-4-(3-(methylsulfonyl)benzylamino)nicotinamide] | > 1 | 0.01 to 0.1 | 0.1 to 1
16 | COCC(=O)N1CCC[C@@H](CNc2cc(Nc3ccc(OC)cc3)ncc2C(N)=O)C1 [Example 51, (S)-4-((1-(2-methoxyacetyl)piperidin-3-yl)methylamino)-6-(4-methoxyphenylamino)nicotinamide] | > 1 | 0.1 to 1 | > 1
17 | NC(=O)c1cnc(Nc2ccc(S(=O)(=O)N3CCC3)cc2)nc1NCc1ccccc1 [Example 434, 2-(4-(azetidin-1-ylsulfonyl)phenylamino)-4-(benzylamino)pyrimidine-5-carboxamide] | > 1 | 0.01 to 0.1 | 0.1 to 1
18 | CCC(=O)N1CCC(c2ccc(Nc3cc(NCC4CCCCC4)c(C(N)=O)cn3)cc2)CC1 [Example 192, 4-(cyclohexylmethylamino)-6-(4-(1-propionylpiperidin-4-yl)phenylamino)nicotinamide] | > 1 | 0.01 to 0.1 | 0.1 to 1
19 | COc1ccc(Nc2cc(NC[C@@H]3CCCN(C(=O)N(C)C)C3)c(C(N)=O)cn2)cc1 [Example 53, (S)-4-((1-(dimethylcarbamoyl)piperidin-3-yl)methylamino)-6-(4-methoxyphenylamino)nicotinamide] | > 1 | 0.1 to 1 | > 1
20 | CCC(=O)N1CC(c2ccc(Nc3cc(NCc4ccccc4)c(C(N)=O)cn3)cc2)C1 [Example 326, 4-(benzylamino)-6-(4-(1-propionylazetidin-3-yl)phenylamino)nicotinamide] | 0.1 to 1 | 0.001 to 0.01 | 0.1 to 1
21 | CCC(=O)N1CCN(c2ccc(Nc3cc(NC4(c5cccc(F)c5F)CC4)c(C(N)=O)cn3)cc2)CC1 [Example 374, 4-(1-(2,3-difluorophenyl)cyclopropylamino)-6-(4-(4-propionylpiperazin-1-yl)phenylamino)nicotinamide] | 0.1 to 1 | 0.001 to 0.01 | 0.01 to 0.1
22 | NC(=O)c1cnc(Nc2ccc(OCC(=O)N3CCOCC3)cc2)cc1NC1(c2ccccc2)CC1 [Example 133, 6-(4-(2-morpholino-2-oxoethoxy)phenylamino)-4-(1-phenylcyclopropylamino)nicotinamide] | > 1 | 0.01 to 0.1 | 0.1 to 1
23 | N#CCN1CCC(c2ccc(Nc3cc(NCc4cccc(F)c4F)c(C(N)=O)cn3)cc2)CC1 [Example 215, 6-(4-(1-(cyanomethyl)piperidin-4-yl)phenylamino)-4-(2,3-difluorobenzylamino)nicotinamide] | > 1 | 0.01 to 0.1 | 0.1 to 1
24 | Cc1cc(Nc2cc(NCc3cccc4[nH]ccc34)c(C(N)=O)cn2)ccc1C(=O)N1CCC1 [Example 460, 4-((1H-indol-4-yl)methylamino)-6-(4-(azetidine-1-carbonyl)-3-methylphenylamino)nicotinamide] | 0.001 to 0.01 | < 0.001 | 0.001 to 0.01
25 | CN(C)C(=O)C1CN(c2ccc(Nc3cc(NCc4cccc5ccsc45)c(C(N)=O)cn3)cc2F)C1 [Example 349, 4-(benzo[b]thiophen-7-ylmethylamino)-6-(4-(3-(dimethylcarbamoyl)azetidin-1-yl)-3-fluorophenylamino)nicotinamide] | 0.1 to 1 | 0.001 to 0.01 | 0.01 to 0.1
26 | CS(=O)(=O)Cc1ccc(Nc2cc(NCc3cccc(-c4ccncc4)c3)c(C(N)=O)cn2)cc1 [Example 418, 6-(4-(methylsulfonylmethyl)phenylamino)-4-(3-(pyridine-4-yl)benzylamino)nicotinamide] | 0.1 to 1 | 0.001 to 0.01 | 0.1 to 1
27 | CN(C)S(=O)(=O)N(C)c1ccc(Nc2cc(NCc3ccccc3)c(C(N)=O)cn2)cc1 [Example 268, 4-(benzylamino)-6-(4-((N,N-dimethylsulfamoyl)(methyl)amino)phenylamino)nicotinamide] | 0.1 to 1 | 0.01 to 0.1 | 0.1 to 1
